{"source": "patent US20090318461A1", "about": "“CRYSTALLINE POLYMORPHISM OF 5-METHYL-2-(PIPERAZIN-1-YL) BENZENESULFONIC ACID” (priority 2006, published 2009)", "key": {"[1]": {"experiment": "Measurement of moisture sorption at each relative humidity (water vapor sorption apparatus SGA-100)", "format": "physicochemical", "settings": "for moisture sorption (weight increase) at relative humidity 50%: 50% RH; for hygroscopicity: from moisture sorption isotherm; for weight change when humidity was reduced from 95% RH to 5% RH after moisture absorption: humidity decrease 95% RH to 5% RH", "method": "In the present invention, when moisture sorption at each relative humidity becomes not more than 0.03% in 5 min, or when 3 hours have passed at each relative humidity, the range of relative humidity being from 0% to 95%, the humidity is increased or decreased at 5% intervals, and the moisture sorption isotherms at each relative humidity is obtained gravimetrically by measuring the mass change of a sample.\nThe above-mentioned moisture sorption can be measured using, for example, SGA-100 type water vapor sorption apparatus (manufactured by VTI) as shown in the Examples. While the error in the relative humidity values depends on the performance of the apparatus, it is about ±1% using this apparatus.\nThe “moisture sorption” in the present invention refers to the values calculated by the following equation:\nmoisture sorption (%)=((RM−DM)/DM))*100\nwherein DM: sample weight (mg) after sufficient drying at relative humidity 0% RM: sample weight (mg) in the equilibrium state at various relative humidities\nFor moisture sorption isotherms, when weight variation under each relative humidity condition becomes not more than 0.03% in 5 min, or when 3 hours have passed at each relative humidity, the range of relative humidity being from 0% to 95%, the humidity is increased or decreased at 5% intervals, and the moisture sorption isotherms at each relative humidity is obtained gravimetrically by measuring the mass change of a sample. The “RH” in the preset Examples means “relative humidity”.\n5-Methyl-2-(piperazin-1-yl)benzenesulfonic acid monohydrate was dried for 60 min by heating in a sample booth at 80° C. under nitrogen substitution. The sample was used as sample 7 (type-I anhydrate crystal), and measured for moisture sorption from 5% RH.\nThe sample 2 (type-II anhydrate crystal) obtained in Example 2 was dried for 60 min by heating in a sample booth at 80° C. under nitrogen substitution, and measured for moisture sorption from 5% RH."}, "cardiomyocytes": {"system": "cardiomyocytes", "settings": "cited from earlier work"}, "[2]": {"experiment": "Thermal analysis (DSC822e) of monohydrate crystals", "format": "physicochemical", "settings": "25-300° C., 20° C./min, dry nitrogen gas", "method": "In Examples 3, 4 and Experimental Examples 5, 6, each crystal forms was confirmed by powder X-ray diffractometer (manufactured by Bruker) GADDS detector system and thermal analysis equipment (manufactured by Mettler-Toledo) DSC822e system.\nFor thermal analysis, the measurement was performed in a dry nitrogen gas stream (50 mL/min) from 25° C. to 300° C. at a temperature rise rate of 20° C./min.\nUsing the solids obtained in Examples 3 and 4 as sample 8 (type-II monohydrate crystal) and sample 9 (type-III monohydrate crystal), respectively, the thermal analysis was performed under the following conditions.\napparatus: DSC822e manufactured by Metter-Toledo temperature rise rate: 20° C./min atmosphere: dry nitrogen gas 50 mL/min measurement temperature: 25-300° C."}, "[3]": {"settings": "humidity increase from 5% RH to 95% RH"}}}
{"molecule": "Cc1ccc(N2CCNCC2)c(S(=O)(=O)O)c1", "note": "[type-II anhydrate crystal, 5-methyl-2-(piperazin-1-yl)benzenesulfonic acid anhydrate]", "values": [{"measurement": "moisture sorption in the range of 0-50% RH", "setting": "[1]; 0-50% RH, humidity increase from 5% RH to 95% RH", "result": "about 2.0%"}, {"measurement": "moisture sorption (weight increase) at relative humidity 50%", "setting": "[1]; [3]", "result": "not more than 2%"}, {"measurement": "weight increase around 60% RH", "setting": "[1]; around 60% RH, humidity increase from 5% RH to 95% RH", "result": "about 6.5%"}, {"measurement": "hygroscopicity", "setting": "[1]", "result": "less hygroscopic"}, {"measurement": "hygroscopicity", "setting": "[1]; listed as sample 2", "result": "hardly present"}, {"measurement": "weight change when humidity was reduced from 95% RH to 5% RH after moisture absorption", "setting": "[1]", "result": "weight change was not observed"}]}
{"molecule": "Cc1ccc(N2CCNCC2)c(S(=O)(=O)O)c1", "note": "[compound A, 5-methyl-2-(piperazin-1-yl)benzenesulfonic acid]", "values": [{"measurement": "suppression of excessive influx of calcium ions into cardiomyocytes", "setting": "cardiomyocytes", "result": "remarkably suppresses"}]}
{"molecule": "Cc1ccc(N2CCNCC2)c(S(=O)(=O)O)c1", "note": "[type-II monohydrate crystal, 5-methyl-2-(piperazin-1-yl)benzenesulfonic acid monohydrate]", "values": [{"measurement": "crystal stability by thermal analysis (no noticeable endothermic and exothermic peaks up to around 80° C.)", "setting": "[2]", "result": "stable"}]}
{"molecule": "Cc1ccc(N2CCNCC2)c(S(=O)(=O)O)c1", "note": "[type-I anhydrate crystal, 5-methyl-2-(piperazin-1-yl)benzenesulfonic acid anhydrate]", "values": [{"measurement": "moisture sorption (weight increase) at relative humidity 50%", "setting": "[1]; humidity increase from 5% RH to 95% RH, listed as sample 7", "result": "about 6.0%"}, {"measurement": "weight change when humidity was reduced from 95% RH to 5% RH after moisture absorption", "setting": "[1]", "result": "weight change was not observed"}, {"measurement": "relative humidity from which moisture absorption was shown", "setting": "[1]; [3]", "result": 10, "unit": "% RH"}]}
